Laboratory results published in patent US8653023B1, “Dual beneficial effect of dopamine enhancing and neuroprotective actions of PKC delta inhibitors for treatment of Parkinson's disease” (Iowa State University Research Foundation, Inc., priority 2006, dated 2014).
Like-named read-outs stand apart in the source and are kept apart here.

What was measured:
3T3 cells = details: zinc deficient medium; cited from earlier work
[1] = tested on: primary mesencephalic dopaminergic neuronal cells; assay type: cell-based, mice; details: 10 μM MPP+, 48 hrs
Experimental: Primary mesencephalic neuronal cultures were prepared from the ventral mesencephalon of gestational 16-18-day-old mice embryos as described previously (Yang et al., 2004). Mesencephalic tissues were dissected and maintained in ice-cold Ca^2+-free HESS and then dissociated in HESS solution containing trypsin-EDTA (0.25%) for 20 min at 37° C. The dissociated cells were then plated at equal density (0.5×10^6 cells) in 30-mm-diameter tissue culture wells precoated with poly-D-lysine (1 mg/ml). Cultures were maintained in a chemically defined medium consisting of neurobasal medium fortified with B-27 supplements, L-glutamine (500 μM), penicillin (100 IU/ml), and streptomycin (100 μg/ml) (Life Technologies). The cells were maintained in a humidified CO2 incubator (5% CO2, 37° C.) for 24 hr and then treated with cytosine arabinoside (10 μM) for 24 hr to inhibit glial cell proliferation. Half of the culture medium was replaced every 2 days. Approximately 6-7-day-old cultures were used for experiments. […]
After treatment, the primary mesencephalic neurons were fixed with 4% paraformaldehyde and processed for immunocytotochemical staining. […] Then the coverslips containing stained cells were washed with PBS, mounted on a slide, and viewed under a Nikon inverted fluorescence microscope (Model TE-2000U); images were captured with a SPOT digital camera (Diagnostic Instruments, Sterling Heights, Mich.).
We used Metamorph software (Universal Imaging, Version 5.0) for measurement of TH^+ cells and neuronal processes in primary neurons from each coverslip. For measurement of TH cell count, the images were first thresholded, and then neuronal count and volume were measured using the Integrated Morphometry Analysis (IMA) function. The data were logged to an Excel spreadsheet with defined row and column positions and then analyzed. […] The data were exported to an Excel spreadsheet and analyzed. TH^+ neurons and their processes were counted in at least six individual cultures for each treatment. This method is a modified version of methodology recently used for quantification of neuronal processes.

Akt = details: cited from earlier work
PKCα or PKCβ = details: cited from earlier work
NZM mice = details: in vivo treatment; cited from earlier work
[2] = tested on: MPTP-treated C57 black mice; assay: TH+ neuron count in substantia nigra pars compacta of MPTP mice (stereology); assay type: in vivo
Experimental: Six to 8-week-old […] mice weighing 30 g were housed in standard conditions: constant temperature (22±1° C.), humidity (relative, 30%) and a 12-h light/dark cycle, and were allowed free access to food and water. The animals and protocol procedures were approved and supervised by the Committee on Animal Care (COAC) at the Iowa State University. Rottlerin was dissolved in 1% dimethyl sulfoxide (DMSO) and was administered intraperitoneally at various doses. An equal volume of DMSO was given to controls. Rottlerin and DMSO administrations were started 24 h before the injections of the MPTP and continued for 5 days in the MPTP model. In the chronic regimens of MPTP administration, MPTP in phosphate-buffered saline (PBS) was injected intraperitoneally at doses of 30 mg/kg, once a day. Mice were sacrificed 2 days after the MPTP injections, and the striata were dissected for catecholamine analysis. Additionally, rottlerin alone (0.3-20 mg/kg) was administered via intraperitoneally or orally and then brain tissues were subjected to neurochemical analyses (FIG. 8). The mesencephalons were fixed in 4% paraformaldehyde for 5 days for tyrosine hydroxylase (TH) immunostaining.
Brains removed following cervical dislocation were post-fixed in paraformaldehyde and used for TH immunolabelling and stereological studies. Fixed brains were cut into 30-μm sections and collected in cryoprotectant. Sections were rinsed in PBS at room temperature before immunostaining, then incubated with a anti-TH antibody as described (Thiruchelvam, McCormack et al. 2003; Thiruchelvam, Powers et al. 2004). The total number of TH^+ and TH Nissl-stained neurons in the SNpc were counted using the optical fractionator and previously described counting criteria (Thiruchelvam, McCormack et al. 2003; Thiruchelvam, Powers et al. 2004). After delineation of the region at low magnification (4× objective), every fourth section from the entire substantia nigra was sampled at higher magnification (100× objective) using StereoImager (Microbrightfield, Vt.).

PKCδ = target: T1, PKCδ (Mus musculus, UniProt P28867); assay: PKCδ immunoprecipitation kinase assay on substantia nigra of rottlerin-treated mice; assay type: in vivo; details: 5 days
T1 construct: PKCδ was immunoprecipitated from SN lysates of both rottlerin-mice and vehicle-mice using PKCδ specific polyclonal antibody; from tissue; host or cells: substantia nigra of C57 black mice
T1 sequence (P28867 whole entry): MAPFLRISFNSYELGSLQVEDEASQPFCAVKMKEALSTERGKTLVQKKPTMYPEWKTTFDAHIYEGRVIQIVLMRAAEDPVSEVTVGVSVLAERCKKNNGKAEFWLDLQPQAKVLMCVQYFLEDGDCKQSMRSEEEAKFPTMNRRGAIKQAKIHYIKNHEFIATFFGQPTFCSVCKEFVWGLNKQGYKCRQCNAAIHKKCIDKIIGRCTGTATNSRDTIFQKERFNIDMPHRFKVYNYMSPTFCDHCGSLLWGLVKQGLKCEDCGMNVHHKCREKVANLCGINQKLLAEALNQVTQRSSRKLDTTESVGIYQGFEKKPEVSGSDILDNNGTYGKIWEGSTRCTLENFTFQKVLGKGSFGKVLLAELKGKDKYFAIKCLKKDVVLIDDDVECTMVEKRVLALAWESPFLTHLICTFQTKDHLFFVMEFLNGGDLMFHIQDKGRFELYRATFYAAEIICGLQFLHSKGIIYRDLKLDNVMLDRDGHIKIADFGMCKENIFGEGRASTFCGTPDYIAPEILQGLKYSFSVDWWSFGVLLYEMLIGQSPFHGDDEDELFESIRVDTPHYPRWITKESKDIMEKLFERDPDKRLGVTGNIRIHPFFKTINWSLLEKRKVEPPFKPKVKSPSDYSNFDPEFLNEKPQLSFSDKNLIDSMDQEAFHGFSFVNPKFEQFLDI
Experimental: PKCδ enzymatic activity was assayed using an immunoprecipitation kinase assay as described by Reyland et al. (Reyland, Anderson et al. 1999). Briefly, after treatment with rottlerin, substantia nigra brain tissue were washed once with PBS and resuspended in 1 ml of PKC lysis buffer (25 mM HEPES, pH 7.5, 20 mM β-glycerophosphate, 0.1 mM sodium orthovanadate, 0.1% Triton X-100, 0.3 M NaCl, 1.5 mM MgCl2, 0.2 mM EDTA, 0.5 mM DTT, 10 mM NaF, and 4 μg/ml each aprotonin and leupeptin). The lysates were allowed to sit on ice for 30 min and centrifuged at 13,000×g for 5 min, and the supernatants were collected as cytosolic fraction. Protein concentration was determined using a Bradford assay. Cytosolic protein (0.25-0.5 mg) was immunoprecipitated overnight at 4° C. using 2 μg of anti-PKCδ antibody. The immunoprecipitates were then incubated with Protein-A Sepharose (Sigma) for 1 hr at 4° C. The protein A bound antigen-antibody complexes were then washed three times with PKC lysis buffer, three times with 2× kinase buffer (40 mM Tris, pH 7.4, 20 mM MgCl2, 20 μM ATP, and 2.5 mM CaCl2), and resuspended in 20 μl of 2× kinase buffer. Reaction was started by adding 20 μl of reaction buffer containing 0.4 mg Histone H1, 50 μg/ml phosphatidylserine, 4.1 μM dioleoylglycerol, and 5 μCi of [γ-^32P] ATP (3000 Ci/mM) to the immunoprecipitated samples and incubated for 10 min at 30° C. SDS gel-loading buffer (2×) was added to terminate the reaction, the samples were boiled for 5 min, and the products were separated on a 12.5% SDS-PAGE gel. The H1 phosphorylated bands were detected using a Personal Molecular Imager (FX model; Bio-Rad), and quantification was done using Quantity One 4.2.0 software.

What does the source list for `CC(=O)c1c(O)c(C)c(O)c(Cc2c(O)c3c(c(C(=O)/C=C/c4ccccc4)c2O)OC(C)(C)C=C3)c1O` [rottlerin]?
cell number (3T3 cells): restored; proteolysis of PKC-delta, activated caspase-3 (3T3 cells): reduced or eliminated; MPP+-induced degeneration of TH+ neurons and their processes ([1]; 0.3 μM rottlerin): significantly blocked; MPP+-induced degeneration of TH+ neurons and their processes ([1]; 1 μM rottlerin): significantly blocked; TPA-induced dephosphorylation of Akt (Akt): inhibited; fold more potent on PKCδ than on PKCα or PKCβ (PKCα or PKCβ): 5- to 10 fold; exacerbation of autoimmunity by silica exposure (NZM mice): significantly decreased; protective effect against SNpc cell loss ([2]; cotreatment with 20 mg/kg rottlerin): 37%; cell loss in SNpc ([2]; cotreatment with 20 mg/kg rottlerin and MPTP 30 mg/kg): 13%; reduction in the kinase activity in SN (PKCδ; i.p. injection with 3 mg rottlerin): more than 30%; reduction in the kinase activity in SN (PKCδ; i.p. injection with 7 mg rottlerin): more than 30%; decrease in protein kinase activity in SN (phosphorylated histone H1 bands) (PKCδ; orally treated with 10 mg rottlerin): 40%; decrease in protein kinase activity in SN (phosphorylated histone H1 bands) (PKCδ; orally treated with 20 mg rottlerin): 50%
